PubChem BioAssay AID248 (DTP/NCI, 2004)
Inconclusive results and toxic doses are left out. Cut-off read from the data, not from the text of the source: active = T/C of 150% or more; inactive = T/C below 125%.

Test system: L1210 leukemia ip in BDF1 mice, survival T/C
Assay: NCI In Vivo Anticancer Drug Screen. Data for tumor model L1210 Leukemia (intraperitoneal) in B6D2F1 (BDF1) mice
Conditions: endpoint: mean survival time, higher = longer survival
How it was run: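 Survival endpoint. Drug-treated group vs vehicle group, expressed as T divided by C. Tumor passaged by transplantation.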

Measured: T/C

COC1/C=C/O[C@@]2(C)Oc3c(C)c(O)c4c(O)c(cc(O)c4c3C2=O)NC(=O)/C(C)=C\C=C\[C@H](C)C(O)[C@@H](C)[C@@H](O)[C@@H](C)[C@H](OC(C)=O)[C@@H]1C (some centres not stated)
inactive: dose: 4.0 mg/kg/injection, schedule: Q03HX040 (ip), vehicle: saline 101 % of control | dose: 8.0 mg/kg/injection, schedule: Q03HX040 (ip), vehicle: saline 103 % of control | dose: 16.0 mg/kg/injection, schedule: Q03HX040 (ip), vehicle: saline 97 % of control | dose: 100.0 mg/kg/injection, schedule: Q01DX009 (ip), vehicle: saline with Tween-80 104 % of control | dose: 100.0 mg/kg/injection, schedule: Q04DX003 (ip), vehicle: saline with Tween-80 95 % of control | dose: 119.0 mg/kg/injection, schedule: Q01DX009 (ip), vehicle: saline 98 % of control | dose: 128.0 mg/kg/injection, schedule: Q03HX024 (ip), vehicle: saline 92 % of control | dose: 128.0 mg/kg/injection, schedule: Q03HX040 (ip), vehicle: saline 89 % of control | dose: 178.0 mg/kg/injection, schedule: Q01DX009 (ip), vehicle: saline 96 % of control | dose: 200.0 mg/kg/injection, schedule: Q01DX009 (ip), vehicle: saline with Tween-80 92 % of control | dose: 200.0 mg/kg/injection, schedule: Q04DX003 (ip), vehicle: saline with Tween-80 87 % of control | dose: 256.0 mg/kg/injection, schedule: Q03HX024 (ip), vehicle: saline 93 % of control | dose: 267.0 mg/kg/injection, schedule: Q01DX009 (ip), vehicle: saline 98 % of control | dose: 400.0 mg/kg/injection, schedule: Q01DX009 (ip), vehicle: saline with Tween-80 97 % of control | dose: 400.0 mg/kg/injection, schedule: Q01DX009 (ip), vehicle: saline 104 % of control | dose: 400.0 mg/kg/injection, schedule: Q04DX003 (ip), vehicle: saline with Tween-80 101 % of control | dose: 512.0 mg/kg/injection, schedule: Q03HX024 (ip), vehicle: saline 92 % of control | dose: 512.0 mg/kg/injection, schedule: Q03HX040 (ip), vehicle: saline 88 % of control | dose: 1024.0 mg/kg/injection, schedule: Q03HX024 (ip), vehicle: saline 98 % of control

NCc1cccc(NC(=O)COc2cccc(Cl)c2)c1
inactive: dose: 25.0 mg/kg/injection, schedule: Q04DX002 (ip), vehicle: Klucel (hydroxypropylcellulose) (HPC) 100 % of control | dose: 50.0 mg/kg/injection, schedule: Q04DX002 (ip), vehicle: Klucel (hydroxypropylcellulose) (HPC) 111 % of control | dose: 100.0 mg/kg/injection, schedule: Q04DX002 (ip), vehicle: Klucel (hydroxypropylcellulose) (HPC) 100 % of control

O=C(NCCO)Nc1ccc(Cl)c(Cl)c1
inactive: dose: 100.0 mg/kg/injection, schedule: Q01DX009 (ip), vehicle: Klucel (hydroxypropylcellulose) (HPC) 100 % of control | dose: 200.0 mg/kg/injection, schedule: Q01DX009 (ip), vehicle: Klucel (hydroxypropylcellulose) (HPC) 103 % of control | dose: 200.0 mg/kg/injection, schedule: Q04DX003 (ip), vehicle: Klucel (hydroxypropylcellulose) (HPC) 101 % of control | dose: 400.0 mg/kg/injection, schedule: Q01DX009 (ip), vehicle: Klucel (hydroxypropylcellulose) (HPC) 101 % of control | dose: 400.0 mg/kg/injection, schedule: Q04DX003 (ip), vehicle: Klucel (hydroxypropylcellulose) (HPC) 87 % of control
